How the values were obtained:
Assay in all cases: biochemical
Format in all cases: binding
panel of 442 kinases [1] = target: T1, panel of 442 kinases (Homo sapiens, UniProt Q8IWQ3); conditions: BRSK2; for remaining activity at 1 µM: read-out: % of control at 1 µM
T1 construct: purchased Ambit Biosciences (scanMAXX KINOMEscan)
T1 sequence (Q8IWQ3 1-736): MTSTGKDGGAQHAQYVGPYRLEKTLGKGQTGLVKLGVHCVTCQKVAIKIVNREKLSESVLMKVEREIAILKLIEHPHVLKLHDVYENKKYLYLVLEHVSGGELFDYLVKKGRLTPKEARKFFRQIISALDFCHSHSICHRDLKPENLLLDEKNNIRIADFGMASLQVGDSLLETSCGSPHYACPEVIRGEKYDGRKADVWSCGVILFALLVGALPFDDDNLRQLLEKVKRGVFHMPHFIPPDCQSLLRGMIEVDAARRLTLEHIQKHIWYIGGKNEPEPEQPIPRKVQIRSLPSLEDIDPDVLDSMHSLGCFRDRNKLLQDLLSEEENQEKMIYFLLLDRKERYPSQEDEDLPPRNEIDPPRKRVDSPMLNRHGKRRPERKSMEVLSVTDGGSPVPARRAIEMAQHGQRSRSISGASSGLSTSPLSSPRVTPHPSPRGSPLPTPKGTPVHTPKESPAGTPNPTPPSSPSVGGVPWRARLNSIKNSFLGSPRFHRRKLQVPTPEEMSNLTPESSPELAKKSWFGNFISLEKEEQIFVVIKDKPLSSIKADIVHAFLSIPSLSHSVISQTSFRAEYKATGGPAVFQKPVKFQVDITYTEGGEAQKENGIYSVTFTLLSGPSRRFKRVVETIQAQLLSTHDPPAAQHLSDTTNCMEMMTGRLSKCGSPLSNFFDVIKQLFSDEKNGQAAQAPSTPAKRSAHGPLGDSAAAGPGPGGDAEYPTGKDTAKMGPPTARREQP

panel of 442 kinases [2] = target: T2, panel of 442 kinases (Homo sapiens, UniProt O15146); conditions: kinase MUSK; for remaining activity at 1 µM: read-out: % of control at 1 µM
T2 construct: purchased Ambit Biosciences (scanMAXX KINOMEscan)
T2 sequence (O15146 24-869): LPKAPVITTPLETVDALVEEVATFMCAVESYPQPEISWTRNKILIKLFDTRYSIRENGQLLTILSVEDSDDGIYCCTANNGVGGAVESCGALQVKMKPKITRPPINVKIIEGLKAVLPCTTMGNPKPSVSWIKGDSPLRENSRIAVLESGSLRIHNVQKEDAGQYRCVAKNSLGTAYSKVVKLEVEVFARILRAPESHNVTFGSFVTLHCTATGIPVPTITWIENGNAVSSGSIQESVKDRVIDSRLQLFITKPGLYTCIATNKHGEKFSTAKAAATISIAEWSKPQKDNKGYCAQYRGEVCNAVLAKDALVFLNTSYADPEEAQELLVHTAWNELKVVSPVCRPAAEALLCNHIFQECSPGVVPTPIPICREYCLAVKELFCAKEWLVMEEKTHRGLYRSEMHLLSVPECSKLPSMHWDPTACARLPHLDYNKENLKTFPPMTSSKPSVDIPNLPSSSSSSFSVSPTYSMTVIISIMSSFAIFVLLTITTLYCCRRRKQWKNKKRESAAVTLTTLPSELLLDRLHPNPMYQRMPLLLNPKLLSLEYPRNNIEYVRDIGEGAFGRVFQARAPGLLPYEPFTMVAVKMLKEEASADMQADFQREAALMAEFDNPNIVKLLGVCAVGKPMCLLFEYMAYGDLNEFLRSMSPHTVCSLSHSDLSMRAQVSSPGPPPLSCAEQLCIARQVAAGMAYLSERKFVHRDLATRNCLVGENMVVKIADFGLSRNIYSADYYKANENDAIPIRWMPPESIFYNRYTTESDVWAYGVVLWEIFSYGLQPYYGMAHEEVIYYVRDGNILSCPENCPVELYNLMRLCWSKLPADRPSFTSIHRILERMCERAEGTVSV

panel of 442 kinases [3] = target: T3, panel of 442 kinases (Homo sapiens, UniProt P27448); conditions: kinase MARK3; for remaining activity at 1 µM: read-out: % of control at 1 µM
T3 construct: purchased Ambit Biosciences (scanMAXX KINOMEscan)

panel of 442 kinases [4] = target: T4, panel of 442 kinases (Homo sapiens, UniProt Q15831); conditions: kinase LKB1; for remaining activity at 1 µM: read-out: % of control at 1 µM
T4 construct: purchased Ambit Biosciences (scanMAXX KINOMEscan)
T4 sequence (Q15831 1-433): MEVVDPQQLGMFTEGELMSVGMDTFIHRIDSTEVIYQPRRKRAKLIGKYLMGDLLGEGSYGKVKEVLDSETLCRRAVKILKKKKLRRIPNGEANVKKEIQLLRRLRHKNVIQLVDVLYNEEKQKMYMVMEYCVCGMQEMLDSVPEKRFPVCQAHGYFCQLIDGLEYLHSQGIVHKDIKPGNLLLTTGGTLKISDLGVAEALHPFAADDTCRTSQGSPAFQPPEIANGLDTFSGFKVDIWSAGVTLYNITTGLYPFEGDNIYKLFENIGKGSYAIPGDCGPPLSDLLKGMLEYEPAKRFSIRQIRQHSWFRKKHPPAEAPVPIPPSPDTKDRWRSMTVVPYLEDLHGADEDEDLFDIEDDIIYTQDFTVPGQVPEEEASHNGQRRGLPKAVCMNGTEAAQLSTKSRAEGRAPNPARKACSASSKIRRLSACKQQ

panel of 442 kinases [5] = target: T5, panel of 442 kinases (Homo sapiens, UniProt Q96Q40); conditions: kinase PFTAIRE2; for remaining activity at 1 µM: read-out: % of control at 1 µM
T5 construct: purchased Ambit Biosciences (scanMAXX KINOMEscan)

[6] = 10 µM, read-out: % of control at 10 µM

T5 sequence (Q96Q40 whole entry): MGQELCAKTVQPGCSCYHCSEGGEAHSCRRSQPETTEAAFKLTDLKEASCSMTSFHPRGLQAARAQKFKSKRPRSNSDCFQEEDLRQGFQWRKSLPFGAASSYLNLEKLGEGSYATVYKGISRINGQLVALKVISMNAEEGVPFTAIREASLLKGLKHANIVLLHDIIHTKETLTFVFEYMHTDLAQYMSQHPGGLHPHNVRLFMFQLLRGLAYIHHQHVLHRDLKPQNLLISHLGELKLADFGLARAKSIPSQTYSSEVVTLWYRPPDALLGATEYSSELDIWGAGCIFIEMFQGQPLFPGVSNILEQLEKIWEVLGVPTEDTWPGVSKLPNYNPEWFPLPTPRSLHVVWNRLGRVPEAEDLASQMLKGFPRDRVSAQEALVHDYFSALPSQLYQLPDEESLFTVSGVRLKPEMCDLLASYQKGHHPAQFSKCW
T3 sequence (P27448 whole entry): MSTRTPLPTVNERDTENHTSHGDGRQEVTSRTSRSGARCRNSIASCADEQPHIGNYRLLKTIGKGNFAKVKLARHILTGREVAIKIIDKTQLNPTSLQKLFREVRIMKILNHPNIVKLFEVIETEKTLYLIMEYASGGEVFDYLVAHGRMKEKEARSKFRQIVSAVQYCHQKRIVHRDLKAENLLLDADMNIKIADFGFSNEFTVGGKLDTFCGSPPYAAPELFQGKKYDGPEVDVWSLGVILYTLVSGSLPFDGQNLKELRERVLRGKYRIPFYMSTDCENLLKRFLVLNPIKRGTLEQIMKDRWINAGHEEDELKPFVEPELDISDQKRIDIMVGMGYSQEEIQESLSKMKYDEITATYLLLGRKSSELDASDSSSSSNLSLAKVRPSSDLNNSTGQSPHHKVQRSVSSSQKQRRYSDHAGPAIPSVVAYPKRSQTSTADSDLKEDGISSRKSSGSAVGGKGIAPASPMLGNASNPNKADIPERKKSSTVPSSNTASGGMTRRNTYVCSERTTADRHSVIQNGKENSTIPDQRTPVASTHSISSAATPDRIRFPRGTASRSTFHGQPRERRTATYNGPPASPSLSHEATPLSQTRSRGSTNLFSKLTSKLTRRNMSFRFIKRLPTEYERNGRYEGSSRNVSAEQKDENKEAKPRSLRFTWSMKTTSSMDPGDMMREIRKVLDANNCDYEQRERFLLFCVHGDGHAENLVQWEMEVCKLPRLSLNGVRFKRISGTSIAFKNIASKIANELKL

Nc1cc(C(F)(F)F)c(-c2cc(N3CCOCC3)nc(N3CCOCC3)n2)cn1 [Buparlisib]
remaining activity at 1 µM (panel of 442 kinases [1]): 100% | remaining activity at 10 µM (panel of 442 kinases [1]; [6]): 100% | remaining activity at 1 µM (panel of 442 kinases [2]): 86% | remaining activity at 10 µM (panel of 442 kinases [2]; [6]): 55% | remaining activity at 1 µM (panel of 442 kinases [3]): 97% | remaining activity at 10 µM (panel of 442 kinases [3]; [6]): 100% | remaining activity at 1 µM (panel of 442 kinases [4]): 100% | remaining activity at 10 µM (panel of 442 kinases [4]; [6]): 99% | remaining activity at 1 µM (panel of 442 kinases [5]): 100% | remaining activity at 10 µM (panel of 442 kinases [5]; [6]): 100%

Cn1c(=O)n(-c2ccc(C(C)(C)C#N)cc2)c2c3cc(-c4cnc5ccccc5c4)ccc3ncc21 [Dactolisib, 2-methyl-2-[4-(3-methyl-2-oxo-8-quinolin-3-yl-2,3-dihydroimidazo[4,5-c]quinolin-1-yl)-phenyl] propionitrile]
remaining activity at 1 µM (panel of 442 kinases [1]): 91% | remaining activity at 1 µM (panel of 442 kinases [2]): 100% | remaining activity at 1 µM (panel of 442 kinases [3]): 100% | remaining activity at 1 µM (panel of 442 kinases [4]): 93% | remaining activity at 1 µM (panel of 442 kinases [5]): 82%

COc1ncc(-c2ccc3nccc(-c4ccnnc4)c3c2)cc1NS(=O)(=O)c1ccc(F)cc1F [Omipalisib]
remaining activity at 1 µM (panel of 442 kinases [1]): 95% | remaining activity at 1 µM (panel of 442 kinases [2]): 100% | remaining activity at 1 µM (panel of 442 kinases [3]): 100% | remaining activity at 1 µM (panel of 442 kinases [4]): 100% | remaining activity at 1 µM (panel of 442 kinases [5]): 100%

FC(F)c1nc2ccccc2n1-c1nc(N2CCOCC2)nc(N2CCOCC2)n1 [ZSTK474, 2-(difluoromethyl)-1-[4,6-di(4-morpholinyl)-1,3,5-triazin-2-yl]-1H-benzimidazole]
remaining activity at 1 µM (panel of 442 kinases [1]): 100% | remaining activity at 1 µM (panel of 442 kinases [2]): 100% | remaining activity at 1 µM (panel of 442 kinases [3]): 100% | remaining activity at 1 µM (panel of 442 kinases [4]): 100% | remaining activity at 1 µM (panel of 442 kinases [5]): 83%
